Patent publication US20230374025A1, “FGFR INHIBITOR COMPOUND AND USE THEREOF” (SHENZHEN KANGSU PHARMACEUTICAL TECHNOLOGY CO., LTD., priority 2021, published 2023)

How the values were obtained:
Assay type in all cases: biochemical
[1] = target: T1, FGFR3 V555M (Homo sapiens, UniProt P22607, V555M); experiment: Assay I: inhibitory activity against FGFR mutants (HTRF KinEASE-TK); settings: ATP 20 μM, substrate TK 1 μM
T1 construct: purchased Signalchem F06-12GG
Experimental: (§1) Assay I: Determination of Inhibitory Activity Against FGFR Mutants
(§2) 1. Reagents and Equipment
(§3) 2.1 Preparation of 1× Kinase Reaction Buffer:
(§4) 1× Kinase reaction buffer was formulated with 1× volume of 5× kinase reaction buffer and 4× volume of water; 5 mM MgCl2; and 1 mM DTT.
(§5) 2.3 Screening of Compounds:
(§6) 1. Diluting a compound 4-fold in a dilution plate with DMSO, with a starting compound concentration of 2 mM.
(§7) 2. Diluting the compound 40-fold into 1× kinase reaction buffer and shaking it on a shaker for 20 minutes.
(§8) 5. Adding 1 μl of the compound diluted in buffer to each well, sealing the plate with a sealing membrane and centrifuging the plate at 1000 g for 30 seconds and leaving it at room temperature for 10 minutes.
(§9) 6. Formulating 2.5×TK-substrate-biotin and ATP mixture with 1× enzyme reaction buffer and adding 2 μl of K-substrate-biotin/ATP mixture to the reaction plate.
(§10) 7. Sealing the plate with a sealing membrane and centrifuging the plate at 1000 g for 30 seconds and allowing it to react at room temperature for 50 minutes.
(§11) 8. Formulating 4× Sa-XL 665 (250 nM) with HTRF assay buffer.
(§12) 9. Adding 5 μl Sa-XL 665 and 5 μl TK-Antibody-Cryptate to each well, centrifuging it at 1000 g for 30 seconds, and allowing it to react for 1 hour at room temperature.
(§13) 10. Reading fluorescence signals at 615 nm (Cryptate) and 665 nm (XL665) with Biotek.
(§14) 3.1 Calculation of the ratio for each well: the ratio was calculated as 665/615 nm.
(§15) 3.3 Calculation of IC50 and plotting of inhibition curves for the compounds.
(§16) The IC50 (half inhibition concentration) of a compound was obtained using the following non-linear fitting equation, wherein data analysis was performed using Graphpad 6.0 software.
(§17) Y=Bottom+(Top−Bottom)/(1+10^((Log IC50−X)*Hill Slope)) • X: log value of compound concentration; and Y: inhibition rate (% inh)
(§18) 3.4 Validation of Results
(§19) Data were exported from Envision and analyzed manually. The ratios were converted to inhibition rates and IC50 was calculated by Prism GraphPad 6.0 from the inhibition rates. IC50 was calculated again by the ratios to verify accuracy of the results.

[2] = target: T2, FGFR2 V564F (Homo sapiens, UniProt P21802, V564F); experiment: as above; settings: ATP 10 μM, substrate TK 1 μM
T2 construct: purchased Signalchem F05-12FG
T2 sequence (P21802 22-821 V564F): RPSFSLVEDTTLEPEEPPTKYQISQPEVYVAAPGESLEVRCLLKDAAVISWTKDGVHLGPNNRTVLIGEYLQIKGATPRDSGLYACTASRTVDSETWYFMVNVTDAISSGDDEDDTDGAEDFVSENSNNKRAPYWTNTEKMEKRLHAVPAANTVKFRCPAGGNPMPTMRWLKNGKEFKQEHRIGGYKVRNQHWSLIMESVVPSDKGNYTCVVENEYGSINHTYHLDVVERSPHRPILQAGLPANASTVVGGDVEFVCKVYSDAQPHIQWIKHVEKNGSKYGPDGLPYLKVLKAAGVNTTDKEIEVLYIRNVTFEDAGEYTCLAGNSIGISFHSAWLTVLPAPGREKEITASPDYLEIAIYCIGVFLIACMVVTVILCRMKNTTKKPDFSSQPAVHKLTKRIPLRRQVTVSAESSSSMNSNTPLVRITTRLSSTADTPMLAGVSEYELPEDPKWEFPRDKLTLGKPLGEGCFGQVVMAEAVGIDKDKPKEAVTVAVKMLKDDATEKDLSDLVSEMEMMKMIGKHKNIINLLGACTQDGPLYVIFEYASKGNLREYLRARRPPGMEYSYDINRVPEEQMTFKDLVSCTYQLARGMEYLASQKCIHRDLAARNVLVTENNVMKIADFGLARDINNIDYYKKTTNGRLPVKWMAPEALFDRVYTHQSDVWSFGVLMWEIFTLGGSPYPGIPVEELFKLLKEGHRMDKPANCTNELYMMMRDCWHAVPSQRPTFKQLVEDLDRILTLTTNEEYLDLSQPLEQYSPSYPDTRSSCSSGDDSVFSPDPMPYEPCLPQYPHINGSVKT
Experimental: as §1, §2, §3, §4, §5, §6, §7, §8, §9, §10, §11, §12, §13, §14, §15, §16, §17, §18, §19

[3] = target: T3, FGFR1 V561M (Homo sapiens, UniProt P11362, V561M); experiment: as above; settings: ATP 5 μM, substrate TK 1 μM
T3 construct: purchased Signalchem F04-13G
T3 sequence (P11362 22-822 V561M): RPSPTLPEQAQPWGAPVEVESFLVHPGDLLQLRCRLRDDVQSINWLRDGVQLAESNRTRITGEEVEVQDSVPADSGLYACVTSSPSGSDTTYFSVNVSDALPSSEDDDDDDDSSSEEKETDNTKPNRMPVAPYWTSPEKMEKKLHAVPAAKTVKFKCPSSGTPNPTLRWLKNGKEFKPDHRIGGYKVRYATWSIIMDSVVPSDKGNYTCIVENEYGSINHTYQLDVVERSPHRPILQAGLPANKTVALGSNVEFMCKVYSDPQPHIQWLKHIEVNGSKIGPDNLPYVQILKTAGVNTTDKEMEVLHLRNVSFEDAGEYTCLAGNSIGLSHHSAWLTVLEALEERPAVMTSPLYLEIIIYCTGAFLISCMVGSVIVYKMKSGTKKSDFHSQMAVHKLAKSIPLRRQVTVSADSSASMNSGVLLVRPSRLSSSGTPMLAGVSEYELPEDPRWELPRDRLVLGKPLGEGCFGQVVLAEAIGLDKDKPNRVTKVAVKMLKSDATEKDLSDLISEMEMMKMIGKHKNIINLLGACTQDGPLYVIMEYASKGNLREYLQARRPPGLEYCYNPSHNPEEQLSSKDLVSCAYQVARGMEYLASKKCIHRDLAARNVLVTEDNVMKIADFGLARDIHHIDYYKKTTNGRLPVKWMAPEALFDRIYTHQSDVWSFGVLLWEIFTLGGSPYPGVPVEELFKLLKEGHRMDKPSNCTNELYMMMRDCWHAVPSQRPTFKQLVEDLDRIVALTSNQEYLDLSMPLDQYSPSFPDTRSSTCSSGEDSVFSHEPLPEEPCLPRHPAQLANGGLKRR
Experimental: as §1, §2, §3, §4, §5, §6, §7, §8, §9, §10, §11, §12, §13, §14, §15, §16, §17, §18, §19

[4] = target: T4, VEGFR2 (Homo sapiens, UniProt P35968); experiment: Assay I: VEGFR2 kinase inhibition (HTRF KinEASE-TK); settings: ATP 5 μM, substrate TK 1 μM
T4 construct: purchased Carna 08-191
T4 sequence (P35968 20-1356): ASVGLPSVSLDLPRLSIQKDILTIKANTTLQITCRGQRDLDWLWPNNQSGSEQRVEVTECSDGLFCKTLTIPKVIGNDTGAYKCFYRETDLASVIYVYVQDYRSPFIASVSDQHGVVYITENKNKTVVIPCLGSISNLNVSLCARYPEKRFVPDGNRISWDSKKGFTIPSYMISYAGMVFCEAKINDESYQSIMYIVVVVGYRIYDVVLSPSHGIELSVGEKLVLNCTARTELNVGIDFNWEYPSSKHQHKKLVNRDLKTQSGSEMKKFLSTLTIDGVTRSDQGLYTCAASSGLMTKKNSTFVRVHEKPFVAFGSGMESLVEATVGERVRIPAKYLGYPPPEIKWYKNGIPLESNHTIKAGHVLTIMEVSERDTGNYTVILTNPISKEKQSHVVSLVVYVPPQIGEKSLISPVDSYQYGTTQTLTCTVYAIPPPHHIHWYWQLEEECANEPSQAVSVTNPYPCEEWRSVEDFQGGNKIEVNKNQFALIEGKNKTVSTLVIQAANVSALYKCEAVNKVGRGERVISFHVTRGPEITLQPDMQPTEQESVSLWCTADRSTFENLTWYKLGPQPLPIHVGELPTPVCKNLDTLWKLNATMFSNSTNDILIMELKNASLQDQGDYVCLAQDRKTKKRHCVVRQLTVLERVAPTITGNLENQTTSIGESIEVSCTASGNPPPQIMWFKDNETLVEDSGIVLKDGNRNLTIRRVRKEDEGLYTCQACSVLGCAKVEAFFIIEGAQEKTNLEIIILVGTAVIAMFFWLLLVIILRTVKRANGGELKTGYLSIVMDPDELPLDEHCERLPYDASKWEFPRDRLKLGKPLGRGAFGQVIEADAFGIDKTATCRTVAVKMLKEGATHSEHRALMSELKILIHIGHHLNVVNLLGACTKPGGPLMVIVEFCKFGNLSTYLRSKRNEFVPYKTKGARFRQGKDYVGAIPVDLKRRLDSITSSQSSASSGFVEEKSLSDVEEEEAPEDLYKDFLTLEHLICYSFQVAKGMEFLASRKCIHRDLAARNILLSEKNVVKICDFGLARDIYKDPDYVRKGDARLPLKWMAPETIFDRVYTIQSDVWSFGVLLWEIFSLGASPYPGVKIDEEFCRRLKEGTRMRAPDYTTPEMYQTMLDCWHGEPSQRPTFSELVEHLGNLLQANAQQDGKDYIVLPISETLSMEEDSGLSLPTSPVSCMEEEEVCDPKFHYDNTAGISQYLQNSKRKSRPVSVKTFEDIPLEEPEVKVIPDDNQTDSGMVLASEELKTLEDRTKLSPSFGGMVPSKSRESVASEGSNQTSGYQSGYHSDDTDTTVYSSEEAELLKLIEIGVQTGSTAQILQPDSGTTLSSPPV
Experimental: as §1, §2, §3, §4, §5, §6, §7
3. Formulating 2×FGFR1 V561M/FGFR2 V564F/FGFR3 K650E/VEGFR2 with 1× of enzyme reaction buffer.
4. Adding 2 μl FGFR1 V561M/FGFR2 V564F/FGFR3 K650E/VEGFR2 kinase (formulated in step 3) to each well of the reaction plate.
as §8, §9, §10, §11, §12, §13, §14, §15, §16, §17, §18, §19
Positive control IC50 was within 3 times of the average value

T1 sequence (P22607 397-806 V555M limits assumed): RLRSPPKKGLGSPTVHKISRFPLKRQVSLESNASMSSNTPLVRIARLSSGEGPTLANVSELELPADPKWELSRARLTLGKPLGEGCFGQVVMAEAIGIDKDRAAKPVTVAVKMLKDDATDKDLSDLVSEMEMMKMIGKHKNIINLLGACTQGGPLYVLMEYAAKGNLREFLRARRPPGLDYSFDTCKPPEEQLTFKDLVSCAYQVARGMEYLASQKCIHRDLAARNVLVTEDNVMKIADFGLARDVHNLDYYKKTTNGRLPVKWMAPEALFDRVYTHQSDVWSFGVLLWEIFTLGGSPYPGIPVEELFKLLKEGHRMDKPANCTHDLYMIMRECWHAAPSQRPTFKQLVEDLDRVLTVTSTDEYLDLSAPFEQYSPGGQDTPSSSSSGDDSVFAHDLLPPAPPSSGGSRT

SMILES | IC50 [1] | IC50 [2] | IC50 [3] | IC50 [4]
CC(Oc1ccc2[nH]nc(-c3nc4c([nH]3)CN(C3CCC(O)CC3)C4)c2c1)c1c(Cl)cncc1Cl (stereo not shown) [Compound 22, 4-(2-(5-(1-(3,5-dichloropyridin-4-yl)ethoxy)-1H-indazol-3-yl)-4,6-dihydropyrrolo[3,4-d]imidazol-5(1H)-yl)cyclohexan-1-ol] | 0.91 nM | 0.76 nM | 1.8 nM | 11.7 nM
CCOC(=O)N1Cc2nc(-c3n[nH]c4ccc(OC(C)c5c(Cl)cncc5Cl)cc34)[nH]c2C1 (stereo not shown) [Compound 23, Ethyl 2-(5-(1-(3,5-dichloropyridin-4-yl)ethoxy)-1H-indazol-3-yl)-4,6-dihydropyrrolo[3,4-d]imidazole-5(1H)-carboxylate] | 1.3 nM | 0.48 nM | 1.2 nM | 85 nM
CC(Oc1ccc2[nH]nc(-c3nc4c([nH]3)CN(C(=O)OCCC#N)C4)c2c1)c1c(Cl)cncc1Cl (stereo not shown) [Compound 24, 2-cyanoethyl 2-(5-(1-(3,5-dichloropyridin-4-yl)ethoxy)-1H-indazol-3-yl)-4,6-dihydropyrrolo[3,4-d]imidazole-5(1H)-carboxylate] | 4.6 nM | 1.4 nM | 2.4 nM | 27.5 nM
CC(Oc1ccc2[nH]nc(-c3nc4c([nH]3)CN(C(=O)C3CC3)C4)c2c1)c1c(Cl)cncc1Cl (stereo not shown) [Compound 25, Cyclopropyl (2-(5-(1-(3,5-dichloropyridin-4-yl)ethoxy)-1H-indazol-3-yl)-4,6-dihydropyrrolo[3,4-d]imidazol-5(1H)-yl)ketone] | 0.26 nM | 0.41 nM | 0.98 nM | 10 nM
CC(Oc1ccc2[nH]nc(-c3nc4c([nH]3)CN(C(=O)C3CC(O)C3)C4)c2c1)c1c(Cl)cncc1Cl (stereo not shown) [Compound 26, (2-(5-(1-(3,5-dichloropyridin-4-yl)ethoxy)-1H-indazol-3-yl)-4,6-dihydropyrrolo[3,4-d]imidazol-5(1H)-yl)(3-hydroxycyclobutyl)ketone] | 0.13 nM | 0.17 nM | 0.38 nM | 7.1 nM
CC(Oc1ccc2[nH]nc(-c3nc4c([nH]3)CN(C(=O)CC#N)C4)c2c1)c1c(Cl)cncc1Cl (stereo not shown) [Compound 27, 3-(2-(5-(1-(3,5-dichloropyridin-4-yl)ethoxy)-1H-indazol-3-yl)-4,6-dihydropyrrolo[3,4-d]imidazol-5(1H)-yl)-3-oxopropionitrile] | 0.4 nM | 0.16 nM | 0.94 nM | 37.5 nM
CCS(=O)(=O)N1Cc2nc(-c3n[nH]c4ccc(OC(C)c5c(Cl)cncc5Cl)cc34)[nH]c2C1 (stereo not shown) [Compound 28, 5-(1-(3,5-dichloropyridin-4-yl)ethoxy)-3-(5-(ethylsulfonyl)-1,4,5,6-tetrahydropyrrolo[3,4-d]imidazol-2-yl)-1H-indazole] | 0.52 nM | 0.3 nM | 1.6 nM | 30 nM
CC(Oc1ccc2[nH]nc(-c3nc4c([nH]3)CN(S(=O)(=O)C3CC3)C4)c2c1)c1c(Cl)cncc1Cl (stereo not shown) [Compound 29, 3-(5-(Cyclopropylsulfonyl)-1,4,5,6-tetrahydropyrrolo[3,4-d]imidazol-2-yl)-5-(1-(3,5-dichloropyridin-4-yl)ethoxy)-1H-indazole] | 0.7 nM | 1.6 nM | 1.2 nM | 64 nM
CC(Oc1ccc2[nH]nc(-c3nc4c([nH]3)CN(S(=O)(=O)C(C)C)C4)c2c1)c1c(Cl)cncc1Cl (stereo not shown) [Compound 30, 5-(1-(3,5-dichloropyridin-4-yl)ethoxy)-3-(5-(isopropylsulfonyl)-1,4,5,6-tetrahydropyrrolo[3,4-d]imidazol-2-yl)-1H-indazole] | 0.6 nM | 0.3 nM | 0.4 nM | 96 nM
CC(Oc1ccc2[nH]nc(-c3nc4c([nH]3)CN(C(=O)CN3CCC(O)C3)C4)c2c1)c1c(Cl)cncc1Cl (stereo not shown) [Compound 31, 1-(2-(5-(1-(3,5-dichloropyridin-4-yl)ethoxy)-1H-indazol-3-yl)-4,6-dihydropyrrolo[3,4-d]imidazol-5(1H)-yl)-2-(3-hydroxypyrrolidin-1-yl)ethan-1-one] | 0.1 nM | 0.15 nM | 0.67 nM | 14 nM
CC(Oc1ccc2[nH]nc(-c3nc4c([nH]3)CN(C(=O)CN3CCC(C#N)C3)C4)c2c1)c1c(Cl)cncc1Cl (stereo not shown) [Compound 32, 1-(2-(2-(5-(1-(3,5-dichloropyridin-4-yl)ethoxy)-1H-indazol-3-yl)-4,6-dihydropyrrolo[3,4-d]imidazol-5(1H)-yl)-2-oxoethyl)pyrrolidine-3-carbonitrile] | 0.19 nM | 1.2 nM | 1.1 nM | 3.7 nM
CNC(=O)N1Cc2nc(-c3n[nH]c4ccc(O[C@H](C)c5c(Cl)cncc5Cl)cc34)[nH]c2C1 [Compound 33, (R)-2-(5-(1-(3,5-dichloropyridin-4-yl)ethoxy)-1H-indazol-3-yl)-N-methyl-4,6-dihydropyrrolo[3,4-d]imidazole-5(1H)-carboxamide] | 0.46 nM | 0.45 nM | 1.3 nM | 6.3 nM
C[C@@H](Oc1ccc2[nH]nc(-c3nc4c([nH]3)CN(C(=O)N(C)C)C4)c2c1)c1c(Cl)cncc1Cl [Compound 34, (R)-2-(5-(1-(3,5-dichloropyridin-4-yl)ethoxy)-1H-indazol-3-yl)-N,N-dimethyl-4,6-dihydropyrrolo[3,4-d]imidazole-5(1H)-carboxamide] | 0.27 nM | 0.29 nM | 0.46 nM | 1.7 nM
C[C@@H](Oc1ccc2[nH]nc(-c3nc4c([nH]3)CN(C3CCN(C)C3)C4)c2c1)c1c(Cl)cncc1Cl (stereo partly drawn) [Compound 36, 5-((R)-1-(3,5-Dichloropyridin-4-yl)ethoxy)-3-(5-(1-methylpyrrolidin-3-yl)-1,4,5,6-tetrahydropyrrolo[3,4-d]imidazol-2-yl)-1H-indazole] | 0.31 nM | 0.61 nM | 1.9 nM | 27.5 nM
CC(C1CCN(C)CC1)N1Cc2nc(-c3n[nH]c4ccc(O[C@H](C)c5c(Cl)cncc5Cl)cc34)[nH]c2C1 (stereo partly drawn) [Compound 37, 5-((R)-1-(3,5-Dichloropyridin-4-yl)ethoxy)-3-(5-(1-(1-methylpiperidin-4-yl)ethyl)-1,4,5,6-tetrahydropyrrolo[3,4-d]imidazol-2-yl)-1H-indazole] | 0.58 nM | 0.68 nM | 3.9 nM | 49.3 nM
C[C@@H](Oc1ccc2[nH]nc(-c3nc4c([nH]3)CN(C3CCCN(C)C3)C4)c2c1)c1c(Cl)cncc1Cl (stereo partly drawn) [Compound 38, 5-((R)-1-(3,5-Dichloropyridin-4-yl)ethoxy)-3-(5-(1-methylpiperidin-3-yl)-1,4,5,6-tetrahydropyrrolo[3,4-d]imidazol-2-yl)-1H-indazole] | 0.15 nM | 0.19 nM | 0.75 nM | 15.7 nM
C[C@@H](Oc1ccc2[nH]nc(-c3nc4c([nH]3)CN(C(=O)CN3CCCC3)C4)c2c1)c1c(Cl)cncc1Cl [Compound 40, (R)-1-(2-(5-(1-(3,5-dichloropyridin-4-yl)ethoxy)-1H-indazol-3-yl)-4,6-dihydropyrrolo[3,4-d]imidazol-5(1H)-yl)-2-(pyrrolidin-1-yl)ethan-1-one] | 0.26 nM | 0.32 nM | 0.39 nM | 4.7 nM
C[C@@H](Oc1ccc2[nH]nc(-c3nc4c([nH]3)CN(C(=O)CN3CC[C@@H](O)C3)C4)c2c1)c1c(Cl)cncc1Cl [Compound 41, 1-(2-(5-((R)-1-(3,5-Dichloropyridin-4-yl)ethoxy)-1H-indazol-3-yl)-4,6-dihydropyrrolo[3,4-d]imidazol-5(1H)-yl)-2-((R)-3-hydroxypyrrolidin-1-yl)ethan-1-one] | 0.1 nM | 0.23 nM | 0.26 nM | 2.4 nM
C[C@@H](Oc1ccc2[nH]nc(-c3nc4c([nH]3)CN(C(=O)CN3CC[C@H](O)C3)C4)c2c1)c1c(Cl)cncc1Cl [Compound 42, 1-(2-(5-((R)-1-(3,5-Dichloropyridin-4-yl)ethoxy)-1H-indazol-3-yl)-4,6-dihydropyrrolo[3,4-d]imidazol-5(1H)-yl)-2-((S)-3-hydroxypyrrolidin-1-yl)ethan-1-one] | 0.33 nM | 0.18 nM | 1 nM | 10.3 nM
